How the values were obtained:
human ORL-1 receptor = biological target: T1, human ORL-1 receptor (Homo sapiens, UniProt P41146); assay: [35S]GTPγS functional assay with ORL-1 receptor membranes; format: biochemical; settings: for Emax: [35S]GTPγS functional assay, NC = 100
T1 construct: host or cells: recombinant HEK-293 cells
Description: Filter plates were subsequently dried at 50° C. for 2-3 hours. […] 3.0.

[1] = biological target: human opioid receptor-like (ORL-1) receptor (Homo sapiens, UniProt P41146); format: binding
Chain of human opioid receptor-like (ORL-1) receptor (P41146 whole entry): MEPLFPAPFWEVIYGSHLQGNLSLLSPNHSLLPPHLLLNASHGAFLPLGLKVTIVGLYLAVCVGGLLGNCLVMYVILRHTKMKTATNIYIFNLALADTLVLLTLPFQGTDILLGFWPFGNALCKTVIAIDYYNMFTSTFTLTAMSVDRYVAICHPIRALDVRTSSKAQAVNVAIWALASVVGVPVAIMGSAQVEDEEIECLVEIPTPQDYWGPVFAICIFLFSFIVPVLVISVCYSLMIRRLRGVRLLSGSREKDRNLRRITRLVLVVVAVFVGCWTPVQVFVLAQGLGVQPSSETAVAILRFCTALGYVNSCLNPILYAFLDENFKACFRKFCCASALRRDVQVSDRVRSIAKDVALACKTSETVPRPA

T1 sequence (P41146 whole entry): as above

| SMILES | Emax (human ORL-1 receptor) | affinity compared with NC [1] | agonist character at ORL-1 (human ORL-1 receptor; functional assay, in words) | potency compared with NC (human ORL-1 receptor; in words) |
| --- | --- | --- | --- | --- |
| CC(C)C[C@H](NC(=O)[C@H](CCCCN)NC(=O)[C@H](CCCNC(=N)N)NC(=O)[C@H](C)NC(=O)[C@H](CO)NC(=O)[C@H](CCCCN)NC(=O)[C@H](CCCNC(=N)N)NC(=O)C(C)(C)NC(=O)CNC(=O)[C@@H](NC(=O)[C@H](Cc1ccccc1)NC(=O)CNC(=O)CNC(=O)[C@@H](N)Cc1ccccc1)[C@@H](C)O)C(=O)N[C@@H](C)C(=O)N[C@@H](CC(N)=O)C(=O)N[C@@H](CCC(N)=O)C(N)=O [IA] | 82% | – | – | – |
| CC(C)C[C@H](NC(=O)[C@H](CCCCN)NC(=O)[C@H](CCCNC(=N)N)NC(=O)C(C)(C)NC(=O)[C@H](CO)NC(=O)[C@H](CCCCN)NC(=O)[C@H](CCCNC(=N)N)NC(=O)[C@H](C)NC(=O)CNC(=O)[C@@H](NC(=O)[C@H](Cc1ccccc1)NC(=O)CNC(=O)CNC(=O)[C@@H](N)Cc1ccccc1)[C@@H](C)O)C(=O)N[C@@H](C)C(=O)N[C@@H](CC(N)=O)C(=O)N[C@@H](CCC(N)=O)C(N)=O [IIA] | 82% | – | – | – |
| CC(C)C[C@H](NC(=O)[C@H](CCCCN)NC(=O)[C@H](CCCNC(=N)N)NC(=O)[C@H](C)NC(=O)[C@H](CO)NC(=O)[C@H](CCCCN)NC(=O)[C@H](CCCNC(=N)N)NC(=O)[C@H](C)NC(=O)CNC(=O)[C@@H](NC(=O)[C@H](Cc1ccccc1)NC(=O)CNC(=O)CNC(=O)[C@@H](N)Cc1ccccc1)[C@@H](C)O)C(=O)NC(C)(C)C(=O)N[C@@H](CC(N)=O)C(=O)N[C@@H](CCC(N)=O)C(N)=O [IIIA] | 97% | – | – | – |
| CC(C)C[C@H](NC(=O)[C@H](CCCCN)NC(=O)[C@H](CCCNC(=N)N)NC(=O)[C@H](C)NC(=O)[C@H](CO)NC(=O)[C@H](CCCCN)NC(=O)[C@H](CCCNC(=N)N)NC(=O)[C@H](C)NC(=O)CNC(=O)[C@@H](NC(=O)[C@H](Cc1ccccc1)NC(=O)CNC(=O)CNC(=O)[C@@H](N)Cc1ccccc1)[C@@H](C)O)C(=O)NC(C)(C)C(=O)N[C@@H](CC(N)=O)C(=O)N[C@@H](CCC(N)=O)C(=O)O [III] | 91% | – | – | – |
| CC(C)C[C@H](NC(=O)[C@H](CCCCN)NC(=O)[C@H](CCCNC(=N)N)NC(=O)C(C)(C)NC(=O)[C@H](CO)NC(=O)[C@H](CCCCN)NC(=O)[C@H](CCCNC(=N)N)NC(=O)[C@H](C)NC(=O)CNC(=O)[C@@H](NC(=O)[C@H](Cc1ccccc1)NC(=O)CNC(=O)CNC(=O)[C@@H](N)Cc1ccccc1)[C@@H](C)O)C(=O)N[C@@H](C)C(=O)N[C@@H](CC(N)=O)C(=O)N[C@@H](CCC(N)=O)C(=O)O [II] | 96% | – | – | – |
| CC(C)C[C@H](NC(=O)[C@H](CCCCN)NC(=O)[C@H](CCCNC(=N)N)NC(=O)[C@H](C)NC(=O)[C@H](CO)NC(=O)[C@H](CCCCN)NC(=O)[C@H](CCCNC(=N)N)NC(=O)C(C)(C)NC(=O)CNC(=O)[C@@H](NC(=O)[C@H](Cc1ccccc1)NC(=O)CNC(=O)CNC(=O)[C@@H](N)Cc1ccccc1)[C@@H](C)O)C(=O)N[C@@H](C)C(=O)N[C@@H](CC(N)=O)C(=O)N[C@@H](CCC(N)=O)C(=O)O [I] | 97% | – | – | – |
| CC(C)C[C@H](NC(=O)[C@H](CCCCN)NC(=O)[C@H](CCCNC(=N)N)NC(=O)C(C)(C)NC(=O)[C@H](CO)NC(=O)[C@H](CCCCN)NC(=O)[C@H](CCCNC(=N)N)NC(=O)C(C)(C)NC(=O)CNC(=O)[C@@H](NC(=O)[C@H](Cc1ccccc1)NC(=O)CNC(=O)CNC(=O)[C@@H](N)Cc1ccccc1)[C@@H](C)O)C(=O)N[C@@H](C)C(=O)N[C@@H](CC(N)=O)C(=O)N[C@@H](CCC(N)=O)C(N)=O [VIIA, FGGFTG(AIB)RKS(AIB)RKLANQ-NH2] | 90% | significantly higher affinity | efficacious agonist | more potent |

— US20040259775A1, “Conformationally constrained peptides that bind the ORL-1 receptor” (EURO-CELTIQUE S.A., priority 2002, published 2004)
